Reference: PMC12541891 (MicrobiologyOpen, 2025)
Values after ≈ are worked out from the molar mass of the structure shown.

Experiments:
[1] = tested on: methicillin resistant S. aureus (MRSA); experiment: MIC and MBC by microbroth dilution; type: cell-based; details: Staphylococcus aureus
Experimental: (§1) No substance was added, in one well, for growth control. A bacterial suspension of 1 × 10^8 CFU/mL was inoculated into all wells of the plate and incubated for 24 h at 37°C. […] The dilutions ranged from 4 to 2000 µg/mL for the substances. The inoculum size was about 2.5×10^3 cells/mL. The plates were incubated at 28°C for 24–48 h. The MIC was determined as the lowest substances' concentration where no visible bacterial or fungal growth was observed. […] Each antimicrobial assay was performed in triplicate.

[2] = tested on: Extended Spectrum-Beta-Lactamase producing E. coli (ESBL-Ec); experiment: MIC and MBC by microbroth dilution; type: cell-based; details: Escherichia coli
Experimental: as §1

[3] = tested on: Staphylococcus aureus ATCC 6538; experiment: MIC and MBC by microbroth dilution; type: cell-based
Experimental: as §1

[4] = tested on: Escherichia coli MG1655 (ATCC 700926); experiment: MIC and MBC by microbroth dilution; type: cell-based
Experimental: as §1

MRSA biofilm [5] = experiment: Biofilm metabolic activity by XTT-reduction assay; type: cell-based, Staphylococcus aureus; details: substance alone at MIC
Experimental: (§2) For all bacterial strains considered in the study, biofilm was performed on a 96‐well plate inoculated with 200 µL of a bacterial suspension 1 × 10^6 CFU/mL and incubated 24 h at 37°C. After incubation for 4 h at 37°C, the medium was aspirated, non‐adherent cells were removed, washed with PBS and added with 200 µL of fresh medium. […] Similarly, to perform fungal biofilm, the different Candida species were grown for 24 h at 28°C on a multi‐wells plate, washed twice with sterile PBS, and then resuspended at 37°C in RPMI 1640 plus 10% FBS at 2.5 × 10^7 cells. After incubation for 3 h at 37°C in six‐well polystyrene plates, the medium was aspirated, non‐adherent cells were removed and washed with PBS.
(§3) The biofilm metabolic activity was evaluated by XTT assay, that highpoints the activity through the reduction of the tetrazolium salt to formazan. After the removal of supernatant and washing with PBS, a solution of XTT‐menadione solution were added to wells. The XTT‐menadione was prepared dissolving XTT powder in prewarmed PBS (37°C) at 0.5 g/L. The solution was sterilized through a 0.22 μm pore size filter. Before each assay, the XTT solution was thawed and supplemented with menadione, a 10 mM stock dissolved in acetone to a final concentration 1 μM. Plates were incubated for 3 h at 37°C in the dark and then the absorbance was measured at 492 nm using the microplate reader, Tecan Sunrise.

S. aureus biofilm [6] = experiment: Biofilm metabolic activity by XTT-reduction assay; type: cell-based, Staphylococcus aureus; details: substance alone at MIC
Experimental: as §2, §3

C. tropicalis 45,615 = experiment: MIC and MFC by microbroth dilution; type: cell-based; details: Candida tropicalis
Experimental: as §1

C. albicans AIDS 68 = experiment: MIC and MFC by microbroth dilution; type: cell-based; details: Candida albicans, AIDS68
Experimental: as §1

A549 cell line = experiment: MTT cytotoxicity assay; details: A549, 24 h contact, 15-125 µg/mL tested
Experimental: (§4) These cell lines were purchased from the American Type Culture Collection (ATCC HTB‐37, Rockville, USA) and stored in liquid nitrogen. T24 cells were cultured in RPMI, supplemented with 10% FBS, 2 mM glutamine, 100 U/mL penicillin, and 100 µg/mL streptomycin. A549 and Caco‐2 cells were cultured in DMEM, supplemented with 10% FBS, 100 U/mL penicillin and 100 μg/mL streptomycin. Cultures were incubated at 37°C in a humidified 5% CO2 atmosphere.
(§5) In a 96‐well plate, 200 μL of cell suspension (10^4 cells/well) were added to each well and plates were incubated at 37°C, 5% CO2. […] Untreated cells were taken as control. After 24 h of treatment, culture medium was replaced with 200 μL of fresh medium added with MTT (5 mg/mL), then plates were incubated for 4 h at 37°C, 5% CO2 atmosphere. Afterward, culture medium with MTT was removed and 200 μl of DMSO were added to each well to dissolve the formazan crystals formed in living cells. After 15 min of incubation, the absorbance was measured at 570 nm, with the reference set at 620 nm, using the automatic microplate reader, Tecan Sunrise (Kumar et al. [2018]). Controls in all the experiments were: (i) wells without the substances assayed, as positive cells growth control; (ii) wells added with ethanol or DMSO in the same amounts in which the substances were suspended, as cells growth control in presence of the substances' solvents.

Caco-2 cell line = experiment: MTT cytotoxicity assay; details: Caco-2, 24 h contact, 15-125 µg/mL tested
Experimental: as §4, §5

C. glabrata DSY562 = experiment: MIC and MFC by microbroth dilution; type: cell-based, Candida glabrata; details: Nakaseomyces glabratus, DSY562
Experimental: as §1

MRSA biofilm [7] = experiment: Biofilm biomass by crystal violet (CV) assay; type: cell-based, Staphylococcus aureus
Experimental: as §2
(§6) To quantify bacterial and Candida biofilm biomass, CV, a dye able to color the biofilm matrix, was used. Firstly, after the removal of supernatant and washing with PBS, biofilm was fixed adding 100 µL of 99% methanol for 15 min. Then, methanol was rinsed off and the plates were air‐dried. Subsequently, 100 µL of a 0.1% of CV solution were added to wells and, after 20 min of contact, the plates were washed under running tap water. To dissolve the bounded CV, 150 µL of 33% of glacial acetic acid were added to wells. The absorbance was measured at 590 nm using an automatic microplate reader, Tecan Sunrise (Tecan Group Ltd., Männedorf, Switzerland).

S. aureus biofilm [8] = experiment: Biofilm biomass by crystal violet (CV) assay; type: cell-based, Staphylococcus aureus; details: substance alone at MIC
Experimental: as §2, §6

C. tropicalis biofilm = experiment: Biofilm metabolic activity by XTT-reduction assay; type: cell-based, Candida tropicalis
Experimental: as §2, §3

C. glabrata biofilm = experiment: Biofilm metabolic activity by XTT-reduction assay; type: cell-based, Candida glabrata
Experimental: as §2, §3

C. albicans biofilm = experiment: Biofilm biomass by crystal violet (CV) assay; type: cell-based, Candida albicans
Experimental: as §2, §6

[9] = preformed biofilm (24 h), substance alone at MIC
[10] = biofilm in formation (3 h), substance alone at MIC
[11] = biofilm in formation, sub-MIC concentrations alone or in combination (Table 5), listed as C
[12] = preformed biofilm, sub-MIC concentrations alone or in combination (Table 5), listed as C

## Cc1ccc(C(C)C)cc1O [Carvacrol, 2‐methyl‐5‐isopropyl phenol]
[1]
  MBC: 125 µg/mL (≈ 832 µM)
[1]; 24 h
  MIC: 125 µg/mL (≈ 832 µM)
[2]
  MBC: 125 µg/mL (≈ 832 µM)
[2]; 24 h
  MIC: 125 µg/mL (≈ 832 µM)
[3]; ATCC6538
  MBC: 125 µg/mL (≈ 832 µM)
[3]; ATCC6538, 24 h
  MIC: 125 µg/mL (≈ 832 µM)
[4]
  MBC: 125 µg/mL (≈ 832 µM)
[4]; 24 h
  MIC: 125 µg/mL (≈ 832 µM)
MRSA biofilm [5]; biofilm in formation (4 h)
  Percentage of metabolic activity reduction: 24.6%
MRSA biofilm [5]; preformed biofilm (24 h)
  Percentage of metabolic activity reduction: 45.6%
S. aureus biofilm [6]; biofilm in formation (4 h)
  Percentage of metabolic activity reduction: 54.9%
S. aureus biofilm [6]; preformed biofilm (24 h)
  Percentage of metabolic activity reduction: 88%
C. tropicalis 45,615
  MFC: 500 µg/mL (≈ 3330 µM)
  MIC: 500 µg/mL (≈ 3330 µM)
C. albicans AIDS 68
  MFC: 500 µg/mL (≈ 3330 µM)
  MIC: 250 µg/mL (≈ 1660 µM)
A549 cell line
  concentrations significantly cytotoxic: > 31000 ng/mL
Caco-2 cell line
  concentrations significantly cytotoxic: > 31000 ng/mL
C. glabrata DSY562
  MFC: 500 µg/mL (≈ 3330 µM)
  MIC: 250 µg/mL (≈ 1660 µM)
MRSA biofilm [7]; biofilm in formation (4 h), substance alone at MIC
  Percentage of biomass reduction: 26.7%
MRSA biofilm [7]; biofilm in formation, sub-MIC concentrations alone or in combination (Table 5)
  Percentage of biomass reduction: 30%
MRSA biofilm [7]; [9]
  Percentage of biomass reduction: 58%
S. aureus biofilm [8]; biofilm in formation (4 h)
  Percentage of biomass reduction: 56.2%
S. aureus biofilm [8]; preformed biofilm (24 h)
  Percentage of biomass reduction: 71.5%
C. tropicalis biofilm; [10]
  Percentage of metabolic activity reduction: 88.7%
C. tropicalis biofilm; [11]
  Percentage of metabolic activity reduction: 35.0%
C. tropicalis biofilm; [9]
  Percentage of metabolic activity reduction: 72.8%
C. tropicalis biofilm; [12]
  Percentage of metabolic activity reduction: 26.1%
C. glabrata biofilm; [10]
  Percentage of metabolic activity reduction: 92%
C. glabrata biofilm; [11]
  Percentage of metabolic activity reduction: 70%
C. glabrata biofilm; [9]
  Percentage of metabolic activity reduction: 91.0%
C. glabrata biofilm; [12]
  Percentage of metabolic activity reduction: 51.2%
C. albicans biofilm; [11]
  Percentage of biomass reduction: 53.5%
C. albicans biofilm; [9]
  Percentage of biomass reduction: 36%
C. albicans biofilm; [12]
  Percentage of biomass reduction: 29.6%
